This note sets out measurements from PubChem BioAssay AID328 (DTP/NCI, 2004).

Each structure is given as a SMILES string. Values joined by “and” are separate entries in the source; they are usually repeats but may differ in a detail not shown here. Equal values may be shown once. Toxic doses and inconclusive results are not listed.

The test deals with BDF1 mice, P388 leukemia ip, median survival T/C. Kind of test: NCI In Vivo Anticancer Drug Screen. Data for tumor model P388 Leukemia (intraperitoneal) in B6D2F1 (BDF1) mice. Conditions: endpoint: median survival time, higher = longer survival. A digest of the protocol:
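Vehicle-dosed animals serve as the reference; survival of compound-dosed, tumour-implanted mice is divided by it.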

The mark [1] stands for this setting: dose: 12.5 mg/kg/injection, schedule: Q01DX009 (ip), vehicle: saline.
[2] abbreviates: dose: 100.0 mg/kg/injection, schedule: Q01DX009 (ip), vehicle: saline with Tween-80.
Setting [3] is: dose: 100.0 mg/kg/injection, schedule: Q04DX003 (ip), vehicle: saline with Tween-80.
[4] abbreviates: dose: 200.0 mg/kg/injection, schedule: Q01DX009 (ip), vehicle: saline with Tween-80.
The mark [5] stands for this setting: dose: 200.0 mg/kg/injection, schedule: Q04DX003 (ip), vehicle: saline with Tween-80.
The mark [6] stands for this setting: dose: 400.0 mg/kg/injection, schedule: Q04DX003 (ip), vehicle: saline with Tween-80.
Where [7] appears, read: dose: 100.0 mg/kg/injection, schedule: Q04DX003 (ip), vehicle: saline.
Where [8] appears, read: dose: 200.0 mg/kg/injection, schedule: Q04DX003 (ip), vehicle: saline.
Setting [9] is: dose: 400.0 mg/kg/injection, schedule: Q04DX003 (ip), vehicle: saline.
Setting [10] is: dose: 50.0 mg/kg/injection, schedule: Q01DX009 (ip), vehicle: saline with Tween-80.
Setting [11] is: dose: 50.0 mg/kg/injection, schedule: Q04DX003 (ip), vehicle: saline with Tween-80.

On to `OC1CCCC2CCC[N-]C12.OC1CCCC2CCC[N-]C12.[O]=[V][OH]` (centres undefined), for which the T/C is 100 % of control (dose: 3.12 mg/kg/injection, schedule: Q01DX009 (ip), vehicle: Klucel (hydroxypropylcellulose) (HPC)); 95 % of control (dose: 6.25 mg/kg/injection, schedule: Q01DX009 (ip), vehicle: Klucel (hydroxypropylcellulose) (HPC)); 110 % of control (dose: 6.25 mg/kg/injection, schedule: Q01DX009 (ip), vehicle: saline); 100 % of control (dose: 12.5 mg/kg/injection, schedule: Q01DX009 (ip), vehicle: Klucel (hydroxypropylcellulose) (HPC)); 150 % of control under setting [1]; 100 % of control (dose: 25.0 mg/kg/injection, schedule: Q01DX009 (ip), vehicle: Klucel (hydroxypropylcellulose) (HPC)).

As to `CN(C)c1ccc(/C=C/c2ccccn2)cc1`, the T/C by setting is: (dose: 12.5 mg/kg/injection, schedule: Q01DX009 (ip), vehicle: saline with Tween-80) 95 % of control; (dose: 25.0 mg/kg/injection, schedule: Q01DX009 (ip), vehicle: saline with Tween-80) 95 % of control.

As for `COc1cc2cc3c4cc(OC)c(OC)cc4cc[n+]3cc2cc1OC`, the T/C reads like this: (dose: 5.0 mg/kg/injection, schedule: Q01DX009 (ip), vehicle: saline with Tween-80) 109 % of control; (dose: 10.0 mg/kg/injection, schedule: Q01DX009 (ip), vehicle: saline with Tween-80) 118 % of control; (dose: 40.0 mg/kg/injection, schedule: Q01DX009 (ip), vehicle: saline with Tween-80) 159 % of control; (dose: 40.0 mg/kg/injection, schedule: Q04DX003 (ip), vehicle: saline) 163 % of control; (dose: 80.0 mg/kg/injection, schedule: Q04DX003 (ip), vehicle: saline) 174 % of control; (dose: 160.0 mg/kg/injection, schedule: Q01DX009 (ip), vehicle: saline with Tween-80) 154 % of control. Moreover, the T/C reads like this: (dose: 160.0 mg/kg/injection, schedule: Q04DX003 (ip), vehicle: saline with Tween-80) 154 % of control; (dose: 160.0 mg/kg/injection, schedule: Q04DX003 (ip), vehicle: saline) 166 % of control; (dose: 320.0 mg/kg/injection, schedule: Q04DX003 (ip), vehicle: saline with Tween-80) 122 % of control; (dose: 320.0 mg/kg/injection, schedule: Q04DX003 (ip), vehicle: saline) 120 % of control.

With `O=C(/C=C/c1ccc([N+](=O)[O-])cc1)c1ccc(Cl)cc1`, the T/C is, setting by setting: under setting [2], 90 % of control; under setting [3], 95 % of control; under setting [4], 90 % of control; under setting [5], 90 % of control; (dose: 400.0 mg/kg/injection, schedule: Q01DX009 (ip), vehicle: saline with Tween-80) 100 % of control; under setting [6], 100 % of control.

On to `COc1ccc2nc(Cl)c(C)c(C)c2c1`, for which the T/C runs as follows: under setting [1], 96 % of control; (dose: 25.0 mg/kg/injection, schedule: Q01DX009 (ip), vehicle: saline) 88 % of control; (dose: 25.0 mg/kg/injection, schedule: Q04DX003 (ip), vehicle: saline) 100 % of control; (dose: 50.0 mg/kg/injection, schedule: Q01DX009 (ip), vehicle: saline) 93 % of control; (dose: 50.0 mg/kg/injection, schedule: Q04DX003 (ip), vehicle: saline) 100 % of control; under setting [7], 109 % of control. In addition, the T/C under setting [8] is 90 % of control; the T/C (dose: 400.0 mg/kg/injection, schedule: Q01DX009 (ip), vehicle: saline) was 92 % of control; the T/C under setting [9] is 100 % of control.

With `CCCCNC(=O)Nc1ccc(N(CC)CC)cc1`, the T/C runs as follows: under setting [3], 100 % of control; under setting [5], 100 % of control; under setting [6], 90 % of control.

As to `CC/C(=C(\CC)c1ccc(OC)cc1)c1ccc(OC)cc1`, the T/C is, setting by setting: under setting [10], 90 % of control; under setting [2], 90 % of control; under setting [3], 86 % of control; under setting [4], 90 % of control; under setting [5], 90 % of control; under setting [6], 95 % of control.

Turning to `Cc1nc(N)c([N+](=O)[O-])cc1[N+](=O)[O-]`, the T/C (dose: 100.0 mg/kg/injection, schedule: Q01DX001 (ip), vehicle: Klucel (hydroxypropylcellulose) (HPC)) was 87 % of control.

For `Cc1cccc2nc(Oc3ccccc3)nc(=O)n12`, the T/C by setting is: under setting [10], 96 % of control; under setting [2], 99 % of control.

With `COc1cccc2c1cc([N+](=O)[O-])c1c(C(=O)O)cc3c(c12)OCO3`, the T/C is 100 % of control (dose: 1.25 mg/kg/injection, schedule: Q01DX010 (ip), vehicle: water); 118 % of control (dose: 2.5 mg/kg/injection, schedule: Q01DX010 (ip), vehicle: water); 86 % of control (dose: 5.0 mg/kg/injection, schedule: Q01DX010 (ip), vehicle: other).

For the compound `C[C@@H]1CN(C(=O)CCOS(C)(=O)=O)[C@@H](C)CN1C(=O)CCOS(C)(=O)=O`, the T/C is 166 % of control under setting [11]; 272 % of control under setting [2]; 208 % of control under setting [3]; 104 % of control under setting [4]; 172 % of control under setting [5]; 233 % of control (dose: 264.0 mg/kg/injection, schedule: Q04DX003 (ip), vehicle: saline with Tween-80). In addition, under setting [6], the T/C is 250 % of control and 272 % of control.

As for `CC(=O)N1C(=O)NC(=O)C1(C)c1cccs1` (centres undefined), the T/C by setting is: under setting [10], 109 % of control; under setting [2], 111 % of control; under setting [3], 100 % of control; under setting [4], 109 % of control; under setting [5], 90 % of control; under setting [6], 90 % of control.

In the case of `COc1ccc(C(O)CN)cc1` (centres undefined), the T/C runs as follows: under setting [7], 98 % of control; under setting [8], 97 % of control; under setting [9], 96 % of control.

As to `COC(=O)C1=C(C)NC(=O)NC1c1ccc(N(CCCl)CCCl)c(OC)c1` (centres undefined), the T/C is 169 % of control (dose: 1.3 mg/kg/injection, schedule: Q01DX009 (ip), vehicle: saline with Tween-80); 227 % of control (dose: 2.0 mg/kg/injection, schedule: Q01DX009 (ip), vehicle: saline with Tween-80); 220 % of control (dose: 3.0 mg/kg/injection, schedule: Q01DX009 (ip), vehicle: saline with Tween-80); 227 % of control (dose: 4.5 mg/kg/injection, schedule: Q01DX009 (ip), vehicle: saline with Tween-80).

`CC1(NC(=O)N(CCCl)N=O)CCCC1`: the T/C runs as follows: under setting [3], 272 % of control; under setting [5], 90 % of control.

With `CC(CS(=O)(=O)O)N1CCN(CCO)CC1` (centres undefined), the T/C runs as follows: under setting [7], 95 % of control; under setting [8], 100 % of control; under setting [9], 100 % of control.

In the case of `CC(=O)OC1CC2CCC1(C)C2(C)C` (centres undefined), the T/C was 109 % of control under setting [11], 109 % of control under setting [3] and 118 % of control under setting [5].

Turning to `O=C1NC(c2cccc3ccccc23)Nc2ccccc21` (centres undefined), the T/C (dose: 50.0 mg/kg/injection, schedule: Q01DX009 (ip), vehicle: water) is 169 % of control; the T/C (dose: 100.0 mg/kg/injection, schedule: Q01DX009 (ip), vehicle: water) was 200 % of control; the T/C (dose: 200.0 mg/kg/injection, schedule: Q01DX009 (ip), vehicle: water) is 104 % of control.

For `O=C1N(Cl)C(=O)C(c2ccccc2)(c2ccc(F)cc2)N1Cl` (centres undefined), the T/C runs as follows: (dose: 25.0 mg/kg/injection, schedule: Q04DX003 (ip), vehicle: Klucel (hydroxypropylcellulose) (HPC)) 87 % of control; (dose: 50.0 mg/kg/injection, schedule: Q04DX003 (ip), vehicle: Klucel (hydroxypropylcellulose) (HPC)) 100 % of control; (dose: 100.0 mg/kg/injection, schedule: Q04DX003 (ip), vehicle: Klucel (hydroxypropylcellulose) (HPC)) 91 % of control.

`COC(=O)C12OCC34C(CC(C(C)=O)C(C)(CC(=O)O)C3C(O)C1O)OC(=O)C(OC(=O)/C=C(\C)C(C)C)C24` (centres undefined): the T/C runs as follows: (dose: 0.25 mg/kg/injection, schedule: Q01DX009 (ip), vehicle: saline) 94 % of control; (dose: 0.5 mg/kg/injection, schedule: Q01DX009 (ip), vehicle: saline) 92 % of control; (dose: 2.0 mg/kg/injection, schedule: Q01DX009 (ip), vehicle: saline) 92 % of control; (dose: 4.0 mg/kg/injection, schedule: Q01DX009 (ip), vehicle: saline) 90 % of control.

Take `NC1=C(Cl)C(=O)C(Cl)=C(Cl)C1=O`: the T/C (dose: 0.39 mg/kg/injection, schedule: Q01DX009 (ip), vehicle: saline) is 102 % of control; the T/C (dose: 0.78 mg/kg/injection, schedule: Q01DX009 (ip), vehicle: saline) is 98 % of control; the T/C (dose: 1.56 mg/kg/injection, schedule: Q01DX009 (ip), vehicle: saline) is 99 % of control.
